Test results published in PMC11231141, “Ube3a unsilencer for the potential treatment of Angelman syndrome” (Nature Communications, 2024).
Like-named read-outs stand apart in the source and are kept apart here.

What was measured:
[1] = system: Snord115, Dlg2, Nrxn3, Malat1; assay: quantitative RT-PCR of long genes in cultured mouse neurons; format: cell-based; conditions: 1 µM (S)-PHA533533 or 0.3 µM topotecan, 72 h, vs DMSO
Excerpt: (§1) […]. […] […]. […] […]. […] […].

Ube3a mRNA = assay: quantitative RT-PCR of Ube3a mRNA in wild-type primary neurons; format: cell-based, mouse
Method: (§2) from the paternal allele in mouse wild-type primary neurons. Primar y cortical neurons derived from wild-type (WT) mice were treated either with 0.1% DMSO as a vehicle, 1 µM ( S)-P HA53 35 33 , or 0.3 µ M to po te can for 72 hours at DIV7. Following the treatment, the relative quantity of ( a) Ube3a […]
determined through western blotting, with the data averaged across three individual experiments, depicted in (c). All data were normalized to GAPDH/Gapdh expression, log- transformed, mean-centered, and autoscaled for statistical analysis (n = 4 experiments fo r R T-PCR, and n = 3 for western blot; me a n ± SE M , o n e -way ANOVA followed by Dunnett ’s post hoc test, ** p < 0.01, *** p < 0.001, **** p < 0.0001). µM – micromolar; DMSO – dimethyl sulfoxide; kDA – kilodalton; Norm. – […]
(1 picture or pasted object on this page, not shown here)

UBE3A protein = assay: western blot of UBE3A protein in wild-type primary neurons; format: cell-based, mouse
Method: 2’ MOE gapmer antisense oligonucleotides (ASOs) designed to target mouse Cdk2 sequence […], Cdk5 sequence […], Top1 sequence […], and scrambled […] sequence as a negative control (Integrated DNA Technologies) were formulated in water and added to cultured cortical neurons grown on 6-well plates at DIV5 at a final concentration of 10 μM. Neurons were further cultured and treated at DIV7 with vehicle (0.1% DMSO) or the indicated compounds for 72 h. For western blot analysis, neurons were washed once with PBS and then lysed using RIPA buffer (50 mM Tris-HCl pH 8.0, 150 mM NaCl, 1% NP−40, 0.5% Na-deoxycholate, 0.5% SDS) and protease inhibitor cocktail (P8340, MilliporeSigma) on ice. […]
as §2
determined through western blotting, with the data averaged across three individual experiments, depicted in (c). […]

paternal UBE3A-YFP = paternal UBE3A-YFP western blot after ASO-mediated knockdown of candidate targets; format: cell-based, mouse; conditions: for unsilencing of paternal Ube3a after ASO-mediated knockdown of TOP1: 10 µM ASO at DIV5, 1 µM (S)-PHA533533 or 0.3 µM topotecan 72 h from DIV7
Method: . […] Scrambled ASO together with DMSO treatment were used as controls for any non-specific effects.
The addition of TOP1 catalyzes supercoiled DNA substrate (lane 1) into slower migrating relaxed DNA (lane 2). […] . Following the treatment, the relative quantities of (h) Snord115, (i) Dlg2, (j) Nrxn3, (k) Malat1, (l) Pantr1, and (m) Airn transcripts were determined by quantitative RT-PCR (n = 4 experiments; mean ± SEM).
2’ MOE gapmer antisense oligonucleotides (ASOs) designed to target mouse Cdk2 sequence […], Cdk5 sequence […], Top1 sequence […], and scrambled […] sequence as a negative control (Integrated DNA Technologies) were formulated in water and added to cultured cortical neurons grown on 6-well plates at DIV5 at a final concentration of 10 μM. Neurons were further cultured and treated at DIV7 with vehicle (0.1% DMSO) or the indicated compounds for 72 h. For western blot analysis, neurons were washed once with PBS and then lysed using RIPA buffer (50 mM Tris-HCl pH 8.0, 150 mM NaCl, 1% NP−40, 0.5% Na-deoxycholate, 0.5% SDS) and protease inhibitor cocktail (P8340, MilliporeSigma) on ice.

TOP1 = target: T1, TOP1 (Homo sapiens, UniProt P11387); assay: TOP1-mediated DNA relaxation assay; format: biochemical; conditions: 3 μM topotecan; increasing concentrations of (S)- and (R)-PHA533533; vs DMSO
T1 construct: purchased TopoGEN
T1 sequence (P11387 1-765): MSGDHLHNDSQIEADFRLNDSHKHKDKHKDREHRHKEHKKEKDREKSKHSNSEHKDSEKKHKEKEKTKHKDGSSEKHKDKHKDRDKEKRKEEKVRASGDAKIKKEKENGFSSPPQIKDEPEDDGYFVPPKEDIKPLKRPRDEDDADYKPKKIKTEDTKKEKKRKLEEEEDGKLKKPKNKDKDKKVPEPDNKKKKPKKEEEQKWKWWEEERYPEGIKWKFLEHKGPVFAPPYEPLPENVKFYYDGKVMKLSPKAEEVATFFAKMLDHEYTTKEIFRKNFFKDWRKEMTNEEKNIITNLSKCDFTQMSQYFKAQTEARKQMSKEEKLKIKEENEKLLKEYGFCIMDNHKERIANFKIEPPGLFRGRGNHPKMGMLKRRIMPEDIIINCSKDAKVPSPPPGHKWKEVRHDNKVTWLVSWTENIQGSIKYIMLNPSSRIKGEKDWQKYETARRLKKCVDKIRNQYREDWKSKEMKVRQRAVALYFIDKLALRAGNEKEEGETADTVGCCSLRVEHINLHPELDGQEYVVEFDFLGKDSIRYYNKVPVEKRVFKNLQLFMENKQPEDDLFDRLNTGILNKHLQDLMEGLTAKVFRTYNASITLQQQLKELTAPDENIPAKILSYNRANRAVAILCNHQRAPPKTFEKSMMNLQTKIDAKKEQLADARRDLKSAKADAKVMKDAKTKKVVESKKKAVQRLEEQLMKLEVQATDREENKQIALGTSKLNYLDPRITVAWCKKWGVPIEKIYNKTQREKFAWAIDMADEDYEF
Excerpt: as §1
The Pfizer chemogenetic library and PHA533533 derivatives were provided by the Compound Transfer Program (CTP) at Pfizer. Topotecan hydrochloride salt was purchased from Cayman Chemicals (Item No. 14129). […] […]. The Human Topoisomerase I Assay Kit was purchased from TopoGEN and performed according to the manufacturer’s protocols.

[2] = 1 µM (S)-PHA533533 or 0.3 µM topotecan, 72 h at DIV7

| SMILES | expression of long genes (Snord115, Dlg2, Nrxn3, Malat1) [1] | Ube3a mRNA levels in WT neurons (Ube3a mRNA) | UBE3A protein levels in WT neurons (UBE3A protein) | unsilencing of paternal UBE3A-YFP after ASO-mediated knockdown of CDK5 (paternal UBE3A-YFP; 10 µM ASO at DIV5, 1 µM (S)-PHA533533 72 h from DIV7) | unsilencing of paternal Ube3a after ASO-mediated knockdown of TOP1 (paternal UBE3A-YFP) | inhibition of TOP1 catalytic activity to relax supercoiled DNA (TOP1) | Ube3a mRNA levels in WT neurons (Ube3a mRNA; [2]) | UBE3A protein levels in WT neurons (UBE3A protein; [2]) |
| --- | --- | --- | --- | --- | --- | --- | --- | --- |
| C[C@H](C(=O)Nc1cc(C2CC2)[nH]n1)c1ccc(N2CCCC2=O)cc1 [(S)-PHA533533] | significantly reduced the expression of only Snord115 | significantly increased | significantly increased | nor did it occlude the unsilencing | did not affect | had no effect on the TOP1 activity | – | – |
| CC[C@@]1(O)C(=O)OCc2c1cc1n(c2=O)Cc2cc3c(CN(C)C)c(O)ccc3nc2-1 [Topotecan, reference compound] | significantly impaired the expression of all the measured long genes | – | – | – | almost completely occluded | clearly inhibited TOP1 catalytic activity | significantly increased | significantly increased |
